This is an account of results in US20210395239A1 (Hoffmann-La Roche Inc., priority 2018, published 2021).

pIC50: −log10 of the molar value.

For the test, the target named is T1, human TLR8 (Homo sapiens, UniProt Q9NR97).
T1 construct: host or cells: HEK293 (HEK-Blue hTLR8)
T1 sequence (Q9NR97 27-1041): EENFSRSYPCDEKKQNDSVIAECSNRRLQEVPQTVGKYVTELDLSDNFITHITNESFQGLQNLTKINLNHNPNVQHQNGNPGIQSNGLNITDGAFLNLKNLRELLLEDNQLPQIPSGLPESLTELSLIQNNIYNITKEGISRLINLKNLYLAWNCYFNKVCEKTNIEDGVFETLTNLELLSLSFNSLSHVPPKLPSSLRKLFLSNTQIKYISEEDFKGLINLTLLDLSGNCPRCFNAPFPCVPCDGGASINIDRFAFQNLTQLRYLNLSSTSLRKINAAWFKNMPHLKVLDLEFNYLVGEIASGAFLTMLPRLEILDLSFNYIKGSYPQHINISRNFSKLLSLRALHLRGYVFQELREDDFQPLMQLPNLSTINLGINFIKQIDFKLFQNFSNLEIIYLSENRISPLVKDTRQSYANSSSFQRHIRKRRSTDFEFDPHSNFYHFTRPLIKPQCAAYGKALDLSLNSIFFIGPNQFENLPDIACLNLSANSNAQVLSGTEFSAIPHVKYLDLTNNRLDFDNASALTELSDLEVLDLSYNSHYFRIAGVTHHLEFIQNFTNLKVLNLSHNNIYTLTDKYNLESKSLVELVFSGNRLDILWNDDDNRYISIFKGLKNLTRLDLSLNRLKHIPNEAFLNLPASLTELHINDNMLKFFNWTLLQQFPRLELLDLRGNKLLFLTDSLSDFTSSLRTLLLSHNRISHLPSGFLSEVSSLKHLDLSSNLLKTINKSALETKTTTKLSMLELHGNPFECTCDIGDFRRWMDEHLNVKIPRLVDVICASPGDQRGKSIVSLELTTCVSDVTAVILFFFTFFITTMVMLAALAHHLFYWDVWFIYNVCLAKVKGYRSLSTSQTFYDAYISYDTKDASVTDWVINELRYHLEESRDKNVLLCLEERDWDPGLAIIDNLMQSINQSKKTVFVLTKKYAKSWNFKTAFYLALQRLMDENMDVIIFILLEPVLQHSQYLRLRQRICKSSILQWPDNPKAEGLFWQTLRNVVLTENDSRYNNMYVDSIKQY
Description: HEK293-Blue-hTLR-8 cells assay (SEAP reporter, R848 stimulation). The class given is cell-based. The following applies: HEK293-Blue-hTLR8 cells, R848, 20 hrs; read-out: HEK/hTLR8 IC50. In short, it runs like this:
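Antagonism read as reduced R848-induced SEAP reporter secretion, detected by QUANTI-Blue absorbance at 620–655 nm after 2 h. Reporter cells were exposed to compound dilutions in DMEM/10% FBS, 1% DMSO, for 20 h at 37° C.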
As to `Cc1cc(N2CCN(C[C@H]3CN(c4ccc(C#N)c5ncccc45)C[C@@H](C)O3)CC2)nc(N2CC(N)C(F)(F)C2)n1` (stereo partly drawn) [Example 63, 5-[(2S,6R)-2-[[4-[2-(4-amino-3,3-difluoro-pyrrolidin-1-yl)-6-methyl-pyrimidin-4-yl]piperazin-1-yl]methyl]-6-methyl-morpholin-4-yl]quinoline-8-carbonitrile], the pIC50 is 7.89.

Turning to `Cc1cc(N2CCN(C[C@H]3CN(c4ccc(C#N)c5ncccc45)C[C@@H](C)O3)CC2)nc(N2CCNCC(O)C2)n1` (stereo partly drawn) [Example 66, 5-[(2S,6R)-2-[[4-[2-(6-hydroxy-1,4-diazepan-1-yl)-6-methyl-pyrimidin-4-yl]piperazin-1-yl]methyl]-6-methyl-morpholin-4-yl]quinoline-8-carbonitrile], the pIC50 was 8.10. `C[C@@H]1CN(c2cc(=O)n(C)c3ncccc23)C[C@H](CN2CC(c3ccc(N4CC(F)[C@H](N)C4)cc3)C2)O1` (stereo in doubt) [Example 174, 4-[(2S,6R)-2-[[3-[4-[(3R,4R)-3-amino-4-fluoro-pyrrolidin-1-yl]phenyl]azetidin-1-yl]methyl]-6-methyl-morpholin-4-yl]-1-methyl-1,8-naphthyridin-2-one]: the pIC50 was 6.80. For `C[C@@H]1CN(c2ccc(C#N)c3ncccc23)C[C@H](CN2CCN(c3cccc(N4CCNCC4)n3)CC2)O1` [Example 10, 5-[(2R,6S)-2-methyl-6-[[4-(6-piperazin-1-yl-2-pyridyl)piperazin-1-yl]methyl]morpholin-4-yl]quinoline-8-carbonitrile], the pIC50 was 8.00. As to `CO[C@H]1CN(c2nccc(N3CCN(C[C@H]4CN(c5ccc(C#N)c6ncccc56)C[C@@H](C)O4)CC3)n2)C[C@@H]1N` [Example 26, 5-[(2S,6R)-2-[[4-[2-trans-(3-amino-4-methoxy-pyrrolidin-1-yl)pyrimidin-4-yl]piperazin-1-yl]methyl]-6-methyl-morpholin-4-yl]quinoline-8-carbonitrile], the pIC50 is 8.52.

As for `C[C@@H]1CN(c2ccc(C#N)n3ncc(F)c23)C[C@H](CN2CCN(c3ccc([C@@H]4CNCCO4)cc3)CC2)O1` [Example 177, 3-fluoro-4-[(2R,6S)-2-methyl-6-[[4-[4-[(2R)-morpholin-2-yl]phenyl]piperazin-1-yl]methyl]morpholin-4-yl]pyrazolo[1,5-a]pyridine-7-carbonitrile], the pIC50 was 7.57. On to `C[C@@H]1CN(c2ccc(C#N)c3ncccc23)C[C@H](CN2CCN(c3ccnc(N4CCN(C(=O)CN(C)C)CC4)n3)CC2)O1` [Example 32, 5-[(2S,6R)-2-[[4-[2-[4-[2-(dimethylamino)acetyl]piperazin-1-yl]pyrimidin-4-yl]piperazin-1-yl]methyl]-6-methyl-morpholin-4-yl]quinoline-8-carbonitrile], for which the pIC50 is 8.52. With `C[C@@H]1CN(c2ccc(C#N)c3ncccc23)C[C@H](CN2CCN(c3cncc(N4CCNCC4)c3)CC2)O1` [Example 7, 5-[(2R,6S)-2-methyl-6-[[4-(5-piperazin-1-yl-3-pyridyl)piperazin-1-yl]methyl]morpholin-4-yl]quinoline-8-carbonitrile], the pIC50 was 8.05. For `C[C@@H]1CN(c2ccc(C#N)c3ncccc23)C[C@H](CN2CCN(c3cccc(C4CNCCO4)c3)CC2)O1` (stereo partly drawn) [Example 62, 5-[(2R,6S)-2-methyl-6-[[4-(3-morpholin-2-ylphenyl)piperazin-1-yl]methyl]-morpholin-4-yl]quinoline-8-carbonitrile], the pIC50 is 7.85. As to `C[C@@H]1CN(c2ccc(C#N)n3ncc(F)c23)C[C@H](CN2CCN(c3ccc(N4CC5(CCN5)C4)nc3)CC2)O1` [Example 179, 4-[(2S,6R)-2-[[4-[6-(1,6-diazaspiro[3.3]heptan-6-yl)-3-pyridyl]piperazin-1-yl]methyl]-6-methyl-morpholin-4-yl]-3-fluoro-pyrazolo[1,5-a]pyridine-7-carbonitrile], the pIC50 was 7.27. For `C[C@@H]1CN(c2ccc(C#N)c3ncccc23)C[C@H](CN2CCN(c3nccc(N4CCNCC4)n3)CC2)O1` [Example 14, 5-[(2R,6S)-2-methyl-6-[[4-(4-piperazin-1-ylpyrimidin-2-yl)piperazin-1-yl]methyl]morpholin-4-yl]quinoline-8-carbonitrile], the pIC50 was 8.52. In the case of `C[C@@H]1CN(c2ccc(C#N)c3ncccc23)C[C@H](CN2CCN(c3ccc(N4CCNCC4)nc3)CC2)O1` [Example 13, 5-[(2R,6S)-2-methyl-6-[[4-(6-piperazin-1-yl-3-pyridyl)piperazin-1-yl]methyl]morpholin-4-yl]quinoline-8-carbonitrile], the pIC50 is 8.30. `C[C@@H]1CN(c2ccc(C#N)c3ncccc23)C[C@H](CN2CCN(c3cccc(N4CCN(C)CC4)n3)CC2)O1` [Example 33, 5-[(2R,6S)-2-methyl-6-[[4-[6-(4-methylpiperazin-1-yl)-2-pyridyl]piperazin-1-yl]methyl]morpholin-4-yl]quinoline-8-carbonitrile]: the pIC50 is 8.15.

`COc1cnc(N2CCNCC2)nc1N1CCN(C[C@H]2CN(c3ccc(C#N)c4ncccc34)C[C@@H](C)O2)CC1` [Example 48, 5-[(2S,6R)-2-[[4-(5-methoxy-2-piperazin-1-yl-pyrimidin-4-yl)piperazin-1-yl]methyl]-6-methyl-morpholin-4-yl]quinoline-8-carbonitrile]: the pIC50 is 8.40. Under `C[C@@H]1CN(c2ccc(C#N)c3ncccc23)C[C@H](CN2CCC(C#N)(c3ccc(N4CCNCC4)cc3)CC2)O1` [Example 11, 5-[(2S,6R)-2-[[4-cyano-4-(4-piperazin-1-ylphenyl)-1-piperidyl]methyl]-6-methyl-morpholin-4-yl]quinoline-8-carbonitrile] stands 7.89; under `Cc1cc(N2CCN(C[C@H]3CN(c4ccc(C#N)c5ncccc45)C[C@@H](C)O3)CC2)nc(N2CCOCC(N)C2)n1` (stereo partly drawn) [Example 56, 5-[(2S,6R)-2-[[4-[2-(6-amino-1,4-oxazepan-4-yl)-6-methyl-pyrimidin-4-yl]piperazin-1-yl]methyl]-6-methyl-morpholin-4-yl]quinoline-8-carbonitrile], 8.22; under `C[C@@H]1CN(c2ccc(C#N)c3ncccc23)C[C@H](CN2CCN(c3nc(N4CCNCC4)ncc3F)CC2)O1` [Example 45, 5-[(2S,6R)-2-[[4-(5-fluoro-2-piperazin-1-yl-pyrimidin-4-yl)piperazin-1-yl]methyl]-6-methyl-morpholin-4-yl]quinoline-8-carbonitrile], 8.40. Turning to `C[C@@H]1CN(c2ccc(C#N)n3ncc(F)c23)C[C@H](CN2CCN(c3ccc(C4(C)CNCCO4)cc3)CC2)O1` (stereo partly drawn) [Example 185, 3-fluoro-4-[(2R,6S)-2-methyl-6-[[4-[4-(2-methylmorpholin-2-yl)phenyl]piperazin-1-yl]methyl]morpholin-4-yl]pyrazolo[1,5-a]pyridine-7-carbonitrile], the pIC50 was 7.48.

In the case of `C[C@@H]1CN(c2ccc(C#N)c3ncccc23)C[C@H](CN2CCN(c3ncc(N4CCNCC4)cn3)CC2)O1` [Example 17, 5-[(2R,6S)-2-methyl-6-[[4-(5-piperazin-1-ylpyrimidin-2-yl)piperazin-1-yl]methyl]morpholin-4-yl]quinoline-8-carbonitrile], the pIC50 was 8.22.

In the case of `CO[C@H]1CN(c2nc(C)cc(N3CCN(C[C@H]4CN(c5ccc(C#N)c6ncccc56)C[C@@H](C)O4)CC3)n2)C[C@H]1N` [Example 60, 5-[(2R,6S)-2-methyl-6-[[4-[6-methyl-2-[cis-3-amino-4-methoxy-pyrrolidin-1-yl]pyrimidin-4-yl]piperazin-1-yl]methyl]morpholin-4-yl]quinoline-8-carbonitrile], the pIC50 was 8.52.

With `C[C@@H]1CN(c2ccc(C#N)c3ncccc23)C[C@H](CN2CCN(c3ccnc(N4CCN(C(=O)[C@@H]5CCCN5)CC4)n3)CC2)O1` [Example 31, 5-[(2R,6S)-2-methyl-6-[[4-[2-[4-[(2S)-pyrrolidine-2-carbonyl]piperazin-1-yl]pyrimidin-4-yl]piperazin-1-yl]methyl]morpholin-4-yl]quinoline-8-carbonitrile], the pIC50 was 8.30. `C[C@@H]1CN(c2ccc(C#N)c3ncccc23)C[C@H](CN2CCN(c3ccc([C@H]4CNCCO4)cc3)CC2)O1` [Example 20, 5-[(2R,6S)-2-methyl-6-[[4-[4-[(2S)-morpholin-2-yl]phenyl]piperazin-1-yl]methyl]morpholin-4-yl]quinoline-8-carbonitrile]: the pIC50 was 8.00.
